From patent US20110082130A1 (LIGAND PHARMACEUTICALS, INC., priority 2006, published 2011)

What follows are compounds tested against T1, chimeric human H3 receptor (Homo sapiens, UniProt Q9Y5N1) (assay: Chimeric human H3 receptor GTP binding assay (agonist-stimulated GTP-gamma35S binding, Example 7)). Settings: Table I; P2 membranes of Sf9 cells, 1 μM histamine as agonist, Ki from IC50 by Cheng-Prusoff.
T1 construct: made in house; host or cells: Sf9 insect cells (baculovirus); P2 membrane preparation
T1 sequence (Q9Y5N1 with tags, fused parts or gaps): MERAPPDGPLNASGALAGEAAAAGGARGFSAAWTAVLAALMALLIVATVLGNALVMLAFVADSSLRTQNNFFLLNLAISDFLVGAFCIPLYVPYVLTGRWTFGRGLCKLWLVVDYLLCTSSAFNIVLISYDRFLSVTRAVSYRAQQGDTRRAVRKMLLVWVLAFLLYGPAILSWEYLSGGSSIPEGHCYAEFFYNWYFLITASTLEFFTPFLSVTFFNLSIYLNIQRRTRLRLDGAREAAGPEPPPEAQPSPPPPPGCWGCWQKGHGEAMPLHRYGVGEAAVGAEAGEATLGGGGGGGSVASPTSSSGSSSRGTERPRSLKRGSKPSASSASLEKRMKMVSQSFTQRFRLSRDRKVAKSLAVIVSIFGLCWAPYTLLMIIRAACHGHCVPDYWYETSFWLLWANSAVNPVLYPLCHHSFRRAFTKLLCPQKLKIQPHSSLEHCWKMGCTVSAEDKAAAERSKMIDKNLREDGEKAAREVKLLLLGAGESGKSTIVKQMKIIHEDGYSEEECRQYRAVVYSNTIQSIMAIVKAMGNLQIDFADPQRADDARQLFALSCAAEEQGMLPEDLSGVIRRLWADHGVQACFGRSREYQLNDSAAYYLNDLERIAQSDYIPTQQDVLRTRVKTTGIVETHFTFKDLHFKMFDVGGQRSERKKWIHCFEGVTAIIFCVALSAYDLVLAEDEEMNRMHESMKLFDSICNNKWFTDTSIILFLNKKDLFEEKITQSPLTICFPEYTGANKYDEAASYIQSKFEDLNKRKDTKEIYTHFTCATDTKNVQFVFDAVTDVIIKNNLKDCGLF
Assay type: biochemical
Outline: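 Sf9 membranes co-expressing chimeric human H3 receptor and heterotrimeric G-protein, 35 μg/tube, in pH 7.4 Tris buffer with 10 μM GDP. Test compounds (10^−10–10^−6 M) competed against 1 μM histamine, […] GTP-gamma35S, 60 min at room temperature. Filter-bound radioactivity counted; IC50 converted to Ki by Cheng-Prusoff. Agonism/inverse agonism tested without histamine (EC50).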

Ki, < 1000 nM:
CS(=O)(=O)c1cccc(-c2ccc3c(c2)CCN(CC(=O)N2CCN(C4CCC4)CC2)C3)c1 [Compound 74, 2-[2-(4-cyclobutylpiperazin-1-yl)-2-oxoethyl]-6-[3-(methylsulfonyl)phenyl]-1,2,3,4-tetrahydroisoquinoline]
CNC(=O)c1ccc2c(c1)CN(CC(=O)N1CCN(C3CCC3)CC1)CC2 [Compound 66, 2-[2-(4-cyclobutylpiperazin-1-yl)-2-oxoethyl]-N-methyl-1,2,3,4-tetrahydroisoquinoline-7-carboxamide]
COc1ccc(-c2ncc3c(n2)CCN(CC(=O)N2CCN(C4CCC4)CC2)C3)cc1 [Compound 76, 6-[2-(4-cyclobutylpiperazin-1-yl)-2-oxoethyl]-2-(4-methoxyphenyl)-5,6,7,8-tetrahydropyrido[4,3-d]pyrimidine]

Same assay, conditions: Table II "Ki", symbol *; assay of Example 7

Ki, < 1000 nM:
CN(C)CCc1cccc(-c2ccc3c(c2)CCN(CC(=O)N2CCN(C4CCC4)CC2)C3)c1 [Compound 644, 2-(3-{2-[2-(4-cyclobutylpiperazin-1-yl)-2-oxoethyl]-1,2,3,4-tetrahydroisoquinolin-6-yl}phenyl)-N,N-dimethylethanamine]
COc1cc(-c2ccc3c(c2)CCN(CC(=O)N2CCN(C4CCCC4)CC2)C3)cc(OC)c1OC [Compound 517, 2-[2-(4-cyclopentylpiperazin-1-yl)-2-oxoethyl]-6-(3,4,5-trimethoxyphenyl)-1,2,3,4-tetrahydroisoquinoline]
O=C(CN1CCc2cc(-c3ccc4ccccc4n3)ccc2C1)N1CCN(C2CCC2)CC1 [Compound 634, 2-{2-[2-(4-cyclobutylpiperazin-1-yl)-2-oxoethyl]-1,2,3,4-tetrahydroisoquinolin-6-yl}quinoline]
COc1cc(-c2ccc3c(c2)CCN(CC(=O)N2CCN(C4CCC4)CC2)C3)cc(OC)c1OC [Compound 516, 2-[2-(4-cyclobutylpiperazin-1-yl)-2-oxoethyl]-6-(3,4,5-trimethoxyphenyl)-1,2,3,4-tetrahydroisoquinoline]
C[C@@H]1CN(C(=O)CN2CCc3cc(-c4cncnc4)ccc3C2)CCN1C1CCCCC1 [Compound 617, 2-{2-[(3R)-4-cyclohexyl-3-methylpiperazin-1-yl]-2-oxoethyl}-6-pyrimidin-5-yl-1,2,3,4-tetrahydroisoquinoline]
O=C(CN1CCc2nc(NC3CCC3)ccc2C1)N1CCN(C2CCC2)CC1 [Compound 654, N-cyclobutyl-6-[2-(4-cyclobutylpiperazin-1-yl)-2-oxoethyl]-5,6,7,8-tetrahydro-1,6-naphthyridin-2-amine]

Same assay, conditions: Table II; "*" = Ki in assay of Example 7 less than 1 micromolar

Ki, < 1000 nM:
O=C(NC1CCC1)c1ccc2c(n1)CCN(CC(=O)N1CCN(C3CCC3)CC1)C2 [Compound 125, N-cyclobutyl-6-[2-(4-cyclobutylpiperazin-1-yl)-2-oxoethyl]-5,6,7,8-tetrahydro-1,6-naphthyridine-2-carboxamide]
Cc1ccc(-n2cc3c(n2)CN(CC(=O)N2CCN(C4CCC4)CC2)CC3)nn1 [Compound 264, 6-[2-(4-cyclobutylpiperazin-1-yl)-2-oxoethyl]-2-(6-methylpyridazin-3-yl)-4,5,6,7-tetrahydro-2H-pyrazolo[3,4-c]pyridine]
O=C(CN1CCc2nc(-c3cccnn3)sc2C1)N1CCN(C2CCC2)CC1 [Compound 279, 5-[2-(4-cyclobutylpiperazin-1-yl)-2-oxoethyl]-2-pyridazin-3-yl-4,5,6,7-tetrahydro[1,3]thiazolo [5,4-c]pyridine]
O=C(CN1CCc2cc(-n3cccnc3=O)ccc2C1)N1CCN(C2CCC2)CC1 [Compound 213, 1-{2-[2-(4-cyclobutylpiperazin-1-yl)-2-oxoethyl]-1,2,3,4-tetrahydroisoquinolin-6-yl}pyrimidin-2(1H)-one]
O=C(CN1CCc2[nH]c(=O)ccc2C1)N1CCN(C2CCC2)CC1 [Compound 134, 6-[2-(4-cyclobutylpiperazin-1-yl)-2-oxoethyl]-5,6,7,8-tetrahydro-1,6-naphthyridin-2(1H)-one]
O=C(CN1CCc2cc(Br)ccc2C1)N1CCN(C2CCC2)CC1 [Compound 118, 6-bromo-2-[2-(4-cyclobutylpiperazin-1-yl)-2-oxoethyl]-1,2,3,4-tetrahydroisoquinoline]
CC(=O)c1nc2c(s1)CN(CC(=O)N1CCN(C3CCC3)CC1)CC2 [Compound 103, 1-{5-[2-(4-cyclobutylpiperazin-1-yl)-2-oxoethyl]-4,5,6,7-tetrahydro[1,3]thiazolo [5,4-c]pyridin-2-yl}ethanone]
CC(=O)c1ccc2c(c1)CCN(CC(=O)N1CCN(C(C)C)CC1)C2 [Compound 141, 1-{2-[2-(4-isopropylpiperazin-1-yl)-2-oxoethyl]-1,2,3,4-tetrahydroisoquinolin-6-yl}ethanone]
COCCN(C)c1ccc2c(n1)CCN(CC(=O)N1CCN(C3CCC3)CC1)C2 [Compound 184, 6-[2-(4-cyclobutylpiperazin-1-yl)-2-oxoethyl]-N-(2-methoxyethyl)-N-methyl-5,6,7,8-tetrahydro-1,6-naphthyridin-2-amine]
O=C(CN1CCc2cc(-c3nccs3)ccc2C1)N1CCN(C2CCC2)CC1 [Compound 120, 2-[2-(4-cyclobutylpiperazin-1-yl)-2-oxoethyl]-6-(1,3-thiazol-2-yl)-1,2,3,4-tetrahydroisoquinoline]
O=C(CN1CCc2ncc(N3CCOCC3)nc2C1)N1CCN(C2CCC2)CC1 [Compound 241, 6-[2-(4-cyclobutylpiperazin-1-yl)-2-oxoethyl]-3-morpholin-4-yl-5,6,7,8-tetrahydropyrido[3,4-b]pyrazine]
CC1CCC[C@H]2CN(C(=O)CN3CCc4nc(-c5cncnc5)sc4C3)CCN12 (stereo in doubt) [Compound 150, 6-methyl-2-[(2-pyrimidin-5-yl-6,7-dihydro[1,3]thiazolo [5,4-c]pyridin-5(4H)-yl)acetyl]octahydro-2H-pyrido[1,2-a]pyrazine]
O=C(CN1CCc2cc(C(=O)N3CCCC3)ccc2C1)N1CCN(C2CCC2)CC1 [Compound 89, 2-[2-(4-cyclobutylpiperazin-1-yl)-2-oxoethyl]-6-(pyrrolidin-1-ylcarbonyl)-1,2,3,4-tetrahydroisoquinoline]
O=C(CN1CCc2cn(-c3cncnc3)nc2C1)N1CCN(C2CCC2)CC1 [Compound 124, 6-[2-(4-cyclobutylpiperazin-1-yl)-2-oxoethyl]-2-pyrimidin-5-yl-4,5,6,7-tetrahydro-2H-pyrazolo[3,4-c]pyridine]
CC(=O)c1ccc2c(c1)CCN(CC(=O)N1CCN3C(C)CCCC3C1)C2 (centres unmarked) [Compound 142, 1-{2-[2-(6-methyloctahydro-2H-pyrido[1,2-a]pyrazin-2-yl)-2-oxoethyl]-1,2,3,4-tetrahydroisoquinolin-6-yl}ethanone]
Cn1c(-c2ccc3c(c2)CCN(CC(=O)N2CCN(C4CCC4)CC2)C3)cccc1=O [Compound 278, 6-{2-[2-(4-cyclobutylpiperazin-1-yl)-2-oxoethyl]-1,2,3,4-tetrahydroisoquinolin-6-yl}-1-methylpyridin-2(1H)-one]
CC(=O)c1ccc(-n2cc3c(n2)CCN(CC(=O)N2CCN(C4CCC4)CC2)C3)nn1 [Compound 202, 1-(6-{5-[2-(4-cyclobutylpiperazin-1-yl)-2-oxoethyl]-4,5,6,7-tetrahydro-2H-pyrazolo[4,3-c]pyridin-2-yl}pyridazin-3-yl)ethanone]

Same assay, conditions: assay of Example 7; "*" in Ki of Table II

Ki, < 1000 nM:
COc1ccc2cc(-c3nc4c(s3)CN(CC(=O)N3CCN(C5CCC5)CC3)CC4)ccc2c1 [Compound 324, 5-[2-(4-cyclobutylpiperazin-1-yl)-2-oxoethyl]-2-(6-methoxy-2-naphthyl)-4,5,6,7-tetrahydro[1,3]thiazolo [5,4-c]pyridine]
CC(=O)c1cccc(-c2nc3c(s2)CN(CC(=O)N2CCN(C4CCC4)CC2)CC3)c1 [Compound 370, 1-(3-{5-[2-(4-cyclobutylpiperazin-1-yl)-2-oxoethyl]-4,5,6,7-tetrahydro[1,3]thiazolo [5,4-c]pyridin-2-yl}phenyl)ethanone]
O=C(CN1CCc2nc(-c3ccc4c(c3)OCO4)sc2C1)N1CCN(C2CCC2)CC1 [Compound 328, 2-(1,3-benzodioxol-5-yl)-5-[2-(4-cyclobutylpiperazin-1-yl)-2-oxoethyl]-4,5,6,7-tetrahydro[1,3]thiazolo [5,4-c]pyridine]
O=C(CN1CCc2nc(-c3cccc(F)c3)sc2C1)N1CCN(C2CCC2)CC1 [Compound 298, 5-[2-(4-cyclobutylpiperazin-1-yl)-2-oxoethyl]-2-(3-fluorophenyl)-4,5,6,7-tetrahydro[1,3]thiazolo [5,4-c]pyridine]
O=C(CN1CCc2cc(-c3cncnc3)ccc2C1)N1CCN(C2CCCCC2)CC1 [Compound 393, 2-[2-(4-cyclohexylpiperazin-1-yl)-2-oxoethyl]-6-pyrimidin-5-yl-1,2,3,4-tetrahydroisoquinoline]
Cc1ccc(F)c(-c2nc3c(s2)CN(CC(=O)N2CCN(C4CCC4)CC2)CC3)c1Cl [Compound 365, 2-(2-chloro-6-fluoro-3-methylphenyl)-5-[2-(4-cyclobutylpiperazin-1-yl)-2-oxoethyl]-4,5,6,7-tetrahydro[1,3]thiazolo [5,4-c]pyridine]
